Laboratory results published in patent publication US6727237B2, “Inhibitors of bacterial NAD synthetase” (priority 1998, dated 2004).
In brackets after ≈: the same amount, converted by molar mass. Several values for one entry are separate records, joined by “and”; a condition that tells them apart may be missing. Equal entries are not always repeated. Where two headings read alike, the source gives them in different places.

Columns and labels:
[1] = target: T1, bacterial NAD synthetase enzyme (Bacillus subtilis, UniProt P08164); assay: biochemical; assay type: biochemical
T1 sequence (P08164 2-272 limits assumed): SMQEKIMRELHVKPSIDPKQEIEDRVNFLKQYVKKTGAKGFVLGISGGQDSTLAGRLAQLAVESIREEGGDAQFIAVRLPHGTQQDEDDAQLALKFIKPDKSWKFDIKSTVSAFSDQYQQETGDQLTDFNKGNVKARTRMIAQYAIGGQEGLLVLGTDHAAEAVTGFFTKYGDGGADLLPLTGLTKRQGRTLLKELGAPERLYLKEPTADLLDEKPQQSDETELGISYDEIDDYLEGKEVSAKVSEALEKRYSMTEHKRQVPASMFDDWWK

[2] = tested on: Staphylococcus epidermitis; assay: Dose response of bacterial growth inhibition, MIC85; details: for MIC85: minimum inhibitory concentration to achieve 85% inhibition, S. epidermitis; for MIC: Staphylococcus, read-out: MIC85
[3] = tested on: Staphylococcus epidermitis; assay: Bacterial growth inhibition screen in LB media (absorbance 595 nm), percent inhibition; details: for % Inhibition: S. epidermitis; for inhibition of growth at 10 µM / inhibition of growth at 100 µM: Staphylococcus, read-out: % Inhibition, S. epidermitis
[4] = tested on: B. subtilis; assay: Dose response of bacterial growth inhibition, MIC85; details: Bacillus subtilis, read-out: MIC85
[5] = lead compounds (Table 318A), read-out: IC 50
[6] = compound at 0.2 mM (Table 312A)

SMILES	MIC85 [2] [µM]	% Inhibition ([3]; concentration screened 10 uM)	IC50 [1] [µM]	MIC [2] [µM]	also measured
CN(C)c1ccc(CC(=O)OCCCCCCCCCn2ccc3cc([N+](=O)[O-])ccc32)cc1 [Compound 853]	30 (≈ 14 µg/mL)	98.58%	–	–	% Inhibition ([1]; compound at 0.1 mM (Table 314)): 73.46%; IC50 [1, 5]: 45 µM
c1ccc(C(c2ccccc2)(c2ccccc2)c2ccc3[nH]c(CCC[n+]4ccc5ccccc5c4)cc3c2)cc1 [Compound 552]	30	50.00%	–	–	% Inhibition ([1]; compound at 0.1 mM (Table 314)): 15.24%
COC(=O)c1ccc[n+](CCCCCCCn2ccc3cc([N+](=O)[O-])ccc32)c1 [Compound 12]	30	99.22% and 95.73%	–	–	% Inhibition ([1]; compound at 0.1 mM (Table 314)): 62.22%
c1ccc(C(c2ccccc2)(c2ccccc2)c2ccc3[nH]c(CCCC[n+]4ccc5ccccc5c4)cc3c2)cc1 [Compound 553]	10	94.92%	–	–	% Inhibition ([1]; compound at 0.1 mM (Table 314)): 49.49%
Cc1ccc2[nH]c(CCCCCC[n+]3ccccc3)cc2c1 [Compound 297]	30	–	–	–	% Inhibition ([1]; compound at 0.1 mM (Table 314)): 50.83%; % Inhibition ([3]; concentration screened 100 uM): 100.00%
Cc1ccc2[nH]c(CCCCC[n+]3ccc4ccccc4c3)cc2c1 [Compound 512]	30	–	–	–	% Inhibition [1, 6]: 17.50%; % Inhibition ([3]; concentration screened 100 uM): 99.71%
FC(F)(F)c1ccc2[nH]c(CCCCC[n+]3ccccc3)cc2c1 [Compound 362]	30	–	–	–	% Inhibition ([1]; compound at 0.1 mM (Table 314)): 8.31%; % Inhibition ([3]; concentration screened 100 uM): 100.00%
COC(=O)c1cc2cc(OCc3ccccc3)ccc2n1CCCCCCCCCOC(=O)Cc1ccc([N+](C)(C)C)cc1 [Compound 990]	–	–	20	–	inhibition at 200 µM [1]: 92.2%; MIC [4]: 10 µM
C[N+](C)(C)c1ccc(CC(=O)OCCCCn2ccc3cc(OCc4ccccc4)ccc32)cc1 [Compound 745]	–	–	85	30	inhibition at 200 µM [1]: 85.4%; inhibition of growth at 10 µM ([3]; concentration screened 10 uM): 95.1%
COC(=O)c1ccc2ccn(CCCCCCC[n+]3ccccc3)c2c1 [Compound 213]	–	–	65	10	inhibition at 200 µM [1]: 90.7%; inhibition of growth at 10 µM ([3]; concentration screened 10 uM): 97.4%
CCCCc1ccc2[nH]c(CCCCCC[n+]3ccccc3)cc2c1 [Compound 315]	–	–	100	30	inhibition at 100 µM [1]: 77.2%; inhibition of growth at 100 µM ([3]; concentration screened 100 uM): 100%
COC(=O)c1ccc[n+](CCCCCCCCCn2ccc3cc([N+](=O)[O-])ccc32)c1 [Compound 14]	10	98.58% and 96.19%	–	–	% Inhibition [1, 6]: 78.85%
COc1ccc2[nH]c(CCCCC[n+]3ccccc3)cc2c1 [Compound 374]	30	–	–	–	% Inhibition ([1]; compound at 0.1 mM (Table 314)): 31.84%; % Inhibition ([3]; concentration screened 100 uM): 100.00%
COc1ccc2[nH]c(CCCCCC[n+]3ccccc3)cc2c1 [Compound 375]	30	–	–	–	% Inhibition ([1]; compound at 0.1 mM (Table 314)): 60.14%; % Inhibition ([3]; concentration screened 100 uM): 100.00%
C[n+]1cccc(C(=O)OCCCCCCCn2ccc3cc(OCc4ccccc4)ccc32)c1 [Compound 768]	–	–	30	10	inhibition at 100 µM [1]: 98.6%; inhibition of growth at 100 µM ([3]; concentration screened 100 uM): 96.1%
C[n+]1cccc(C(=O)OCCCCCn2ccc3cc(OCc4ccccc4)ccc32)c1 [Compound 766]	–	–	65	30	inhibition at 100 µM [1]: 91.2%; inhibition of growth at 10 µM ([3]; concentration screened 10 uM): 90.5%
C[N+](C)(C)c1ccc(CC(=O)OCCCCCCn2ccc3cc(OCc4ccccc4)ccc32)cc1 [Compound 747]	–	–	70	10	inhibition at 100 µM [1]: 97.8%; inhibition of growth at 10 µM ([3]; concentration screened 10 uM): 97.9%
COC(=O)c1ccc2c(ccn2CCCCCCCCC[n+]2cc(C(=O)OC)cc3ccccc32)c1 [Compound 174]	–	–	40	10	inhibition of growth at 10 µM ([3]; concentration screened 10 uM): 98.7%
FC(F)(F)c1ccc2cc(CCCCCC[n+]3ccccc3)[nH]c2c1 [Compound 291]	30	–	–	–	% Inhibition [1, 6]: 71.94%; % Inhibition ([3]; concentration screened 100 uM): 100.00%
COC(=O)c1cc2cc(OC)ccc2n1CCCCCCCCC[n+]1ccccc1 [Compound 246]	30	90.26%	–	–	% Inhibition [1, 6]: 92.19%
FC(F)(F)c1ccc2[nH]c(CCCCCC[n+]3ccccc3)cc2c1 [Compound 363]	30	–	–	–	% Inhibition [1, 6]: 75.01%; % Inhibition ([3]; concentration screened 100 uM): 100.00%
COC(=O)c1cc2cc(OCc3ccccc3)ccc2n1CCCCCCC[n+]1ccccc1 [Compound 229]	–	–	25	3	inhibition at 100 µM [1]: 99.3%; inhibition of growth at 100 µM ([3]; concentration screened 100 uM): 98%
Cc1ccc2[nH]c(CCCC[n+]3ccccc3)cc2c1 [Compound 295]	10	94.48%	–	–	% Inhibition ([1]; compound at 0.1 mM (Table 314)): 25.05%
COC(=O)c1ccc[n+](CCCCCCCCn2ccc3cc([N+](=O)[O-])ccc32)c1 [Compound 13]	–	–	50	30	inhibition at 200 µM [1]: 80.8%; inhibition of growth at 10 µM ([3]; concentration screened 10 uM): 98.5%

SMILES	MIC85 [2] [µM]	% Inhibition ([3]; concentration screened 10 uM)	IC50 [1] [µM]	MIC [2] [µM]	also measured
COc1ccc2c(ccn2CCCCCCCCOC(=O)Cc2ccc([N+](C)(C)C)cc2)c1 [Compound 744]	30	97.74%	–	–	% Inhibition [1, 6]: 95.85%
C[N+](C)(C)c1ccc(CC(=O)OCCCCCn2ccc3cc(OCc4ccccc4)ccc32)cc1 [Compound 746]	–	–	50	10	inhibition at 100 µM [1]: 91.3%; inhibition of growth at 10 µM ([3]; concentration screened 10 uM): 96.8%
C[n+]1cc(C(=O)OCCCCCCn2ccc3cc([N+](=O)[O-])ccc32)cc2ccccc21 [Compound 832]	–	–	90	30	inhibition at 100 µM [1]: 78.6%; inhibition of growth at 10 µM ([3]; concentration screened 10 uM): 94.7%
COc1ccc2c(ccn2CCCCCOC(=O)c2cc3ccccc3[n+](C)c2)c1 [Compound 821]	30	95.02%	–	–	–
COC(=O)C=Cc1cn(CCCCCCC[n+]2ccccc2)c2ccccc12 [Compound 261]	30	92.51%	–	–	–
COC(=O)c1cc2cc(OCc3ccccc3)ccc2n1CCC[n+]1ccccc1 [Compound 227]	30	96.46%	–	–	% Inhibition [1, 6]: 91.19%
C[N+](C)(C)c1cccc(C(=O)OCCCCCCn2ccc3cc(OCc4ccccc4)ccc32)c1 [Compound 807]	10	97.22%	–	–	–
COC(=O)c1cc2cc(OCc3ccccc3)ccc2n1CCCCC[n+]1ccccc1 [Compound 228]	–	–	60	10	inhibition at 100 µM [1]: 95.1%; inhibition of growth at 100 µM ([3]; concentration screened 100 uM): 96.8%
CN(C)c1ccc(CC(=O)OCCCCCCCCn2ccc3cc([N+](=O)[O-])ccc32)cc1 [Compound 852]	30 (≈ 13.5 µg/mL)	98.58%	–	–	–
COC(=O)c1ccc[n+](CCCCCCCCCn2c(C(=O)OC)cc3ccccc32)c1 [Compound 190]	–	–	50	3	inhibition of growth at 100 µM ([3]; concentration screened 100 uM): 97.7%
CN(C)c1cccc(C(=O)OCCCCCCCCCn2ccc3cc([N+](=O)[O-])ccc32)c1 [Compound 841]	10 (≈ 4.52 µg/mL)	98.90%	–	–	–
COC(=O)c1cc2ccccc2n1CCCCCCCCC[n+]1ccccc1 [Compound 182]	–	–	60	10	inhibition at 100 µM [1]: 95.4%; inhibition of growth at 100 µM ([3]; concentration screened 100 uM): 97.7%
CN(C)c1cccc(C(=O)OCCCCCCCCn2ccc3cc([N+](=O)[O-])ccc32)c1 [Compound 840]	10 (≈ 4.38 µg/mL)	98.77%	–	–	–
Fc1cc(F)c2[nH]c(CCCCC[n+]3ccc4ccccc4c3)cc2c1 [Compound 518]	30	–	–	–	% Inhibition ([1]; compound at 0.1 mM (Table 314)): 30.39%; % Inhibition ([3]; concentration screened 100 uM): 100.00%
c1ccc2c[n+](CCCCCc3cc4ccccc4[nH]3)ccc2c1 [Compound 500]	30	–	–	–	% Inhibition ([1]; compound at 0.1 mM (Table 314)): 18.25%; % Inhibition ([3]; concentration screened 100 uM): 99.14%
Cc1ccc2[nH]c(CCCCC[n+]3ccccc3)cc2c1 [Compound 296]	30	87.47%	–	–	% Inhibition [1, 6]: 16.79%
COC(=O)c1ccc2ccn(CCCCCCCCC[n+]3cccc(C(=O)OC)c3)c2c1 [Compound 222]	30	98.50%	–	–	% Inhibition [1, 6]: 52.98%
C[n+]1cccc(C(=O)OCCCCCCn2ccc3cc(OCc4ccccc4)ccc32)c1 [Compound 767]	–	–	60	10	inhibition at 100 µM [1]: 96%; inhibition of growth at 100 µM ([3]; concentration screened 100 uM): 91.8%
C[N+](C)(C)c1ccc(CC(=O)OCCCCCCCn2ccc3cc(OCc4ccccc4)ccc32)cc1 [Compound 748]	–	–	–	10	inhibition at 100 µM [1]: 98.4%; IC50 [1, 5]: 30 µM; inhibition of growth at 100 µM ([3]; concentration screened 100 uM): 98.4%
FC(F)(F)c1ccc2cc(CCC[n+]3ccccc3)[nH]c2c1 [Compound 288]	30	99.65%	–	–	% Inhibition ([1]; compound at 0.1 mM (Table 314)): 42.38%
COC(=O)c1ccc2ccn(CCCCCCCCC[n+]3ccccc3)c2c1 [Compound 214]	–	–	30	10	inhibition at 100 µM [1]: 82.8%; inhibition of growth at 100 µM ([3]; concentration screened 100 uM): 98.1%
COc1ccc2c(ccn2CCCCCCCOC(=O)Cc2ccc([N+](C)(C)C)cc2)c1 [Compound 743]	10	97.67%	–	–	% Inhibition ([1]; compound at 0.1 mM (Table 314)): 94.10%
O=C(OCCCCCn1ccc2cc([N+](=O)[O-])ccc21)c1cnc2ccccc2c1 [Compound 831]	30 (≈ 12.1 µg/mL)	84.68%	–	–	% Inhibition ([1]; compound at 0.1 mM (Table 314)): 26.21%
